Source: ChEMBL document CHEMBL1127666, “Phosphonate analogs of carbocyclic nucleotides” (J Med Chem, 1994)
pIC50: −log10 of the molar value.

System: HEp-2
Experiment: Cytotoxicity to human epidermoid carcinoma cells (HEP-2)
Type: functional, cell-based

Compound | pIC50
Nc1nc(O)c2ncn(C3CC(O)C(OCP(=O)(O)O)C3)c2n1 (configuration not stated) | 5.62
Nc1nc(O)c2ncn([C@@H]3C[C@H](CO)[C@@H](O)C3)c2n1 | 4.02
